Test results from US20180311276A1, “Method and Apparatus for Treating Oral Disease in Animals” (priority 2015, published 2018).

How the values were obtained:
thyroid level (T4) = thyroid level (T4) in the Example 1 clinical trial; type: in vivo, dogs; conditions: 0.5 or 1.0 microgram/mL in drinking water, 28 days
Source text: Each dog was weighed, blood drawn for determination of thyroid level and a qualitative assessment was made for halitosis using a 0, 1, 2, 3, 4 and 5 scale with 0 indicating no discernible “doggie breath produced by hydrogen sulfide H2S” and 5 being very noxious, strong odor. Dogs were anesthetized, marginal tooth-gum line measurements were taken for proscribed teeth (required for veterinary oral health counsel certification of efficacy at reducing plaque in dogs found at www.VOHC.com) and dog teeth were cleaned to remove all plaque and tarter. All dogs were given either drug or placebo each morning for 28 days. Journal entries were kept for each dog to monitor for compliance, observations regarding dog drinking behavior and comments regarding dog breath/odor. Once each dog drank all the water i.e., 1000 mL the water bowl was filled with fresh water. […] At the end of the study i.e., 28 days each dog was sedated, breath was evaluated and teeth were stained with disclosing solution that is proven to stain plaque red. The attending veterinarian who measured the initial marginal tooth-gum line measured all the proscribed teeth using the published technique (Scherl D S, Coffman L, et al. Validation of a New Dental Plaque Quantification Method in Dogs. J Vet Dent 24(1); 14-20, 2007). All values from all 20 dogs were recorded and whole mouth scores were calculated.

[1] = system: oral bacteria responsible for plaque formation; assay: kill of oral bacteria responsible for plaque formation; type: cell-based; conditions: 2 micrograms/mL
Source text: (§1) The inventor evaluated a variety elemental iodine concentrations e.g., 0.5, 1.0, 2.0, 3, 5, 10, 15 and 20 micrograms/mL and discovered that dogs preferred drinking water with elemental iodine below 2 micrograms/mL. We evaluated the ability of elemental iodine to kill oral bacteria at a concentration of 2 micrograms/mL responsible for plaque formation and discovered that elemental iodine was effective at this dose i.e., microbial kill >3 logs/min. We evaluated lower concentrations of elemental iodine e.g., 0.05, 0.1 and 0.5 micrograms/mL. […] We hypothesized that molecular iodine concentrations below 0.5 micrograms/mL may not be not effective in killing oral bacteria responsible for plaque formation. We confirmed this assumption by performing microbial analysis. The inventor sent samples of two part preparations e.g., 1 vial with water and a second vial with iodine in 100% ethyl alcohol. These were combined before analysis so that the final concentrations were 0.05, 0.1, 0.5, 1.0, 2.0 and 5.0 micrograms/mL. The test organism was a known plaque-producing bacterium i.e., Neisseria spp. A contract research laboratory in Texas i.e., MicroChem Laboratories performed the use dilution experiments.

plaque = assay: double-blind, placebo controlled clinical trial in 20 adult dogs, whole mouth plaque scores (Example 1); type: in vivo; conditions: 28 days
Protocol: First, a double-blind, placebo controlled clinical trial was conducted using 20 adult dogs of mixed breed and weights. The dogs were randomly divided into two groups. […] Group 1 dogs were further divided into two groups of five dogs. Five received molecular iodine [I2] dissolved into 1000 mL water to a final concentration of 0.5 microgram/mL. The second group of five dogs received molecular iodine [I2] dissolved into 1000 mL water to a final concentration of 1.0 microgram/mL. The placebo group of 10 dogs received no iodine. […]
Each dog was weighed, blood drawn for determination of thyroid level and a qualitative assessment was made for halitosis using a 0, 1, 2, 3, 4 and 5 scale with 0 indicating no discernible “doggie breath produced by hydrogen sulfide H2S” and 5 being very noxious, strong odor. […] At the end of the study i.e., 28 days each dog was sedated, breath was evaluated and teeth were stained with disclosing solution that is proven to stain plaque red. The attending veterinarian who measured the initial marginal tooth-gum line measured all the proscribed teeth using the published technique (Scherl D S, Coffman L, et al. Validation of a New Dental Plaque Quantification Method in Dogs. J Vet Dent 24(1); 14-20, 2007). All values from all 20 dogs were recorded and whole mouth scores were calculated.

thyroid hormone levels = thyroid hormone levels in the two shelter clinical trials; type: in vivo, dogs; conditions: iodine added to dog drinking water
Protocol: (§2) Plaque formation leads to gingivitis and periodontal disease and often progresses to systemic disease and death in dogs. Clinical trial 1 was conducted at a humane shelter with all dogs enclosed in kennels using a manually added drug vs. placebo. Subsequently, Clinical Trial 2 was conducted at a humane shelter with all dogs enclosed in kennels but in this case the iodine vs placebo was administered via an automated system.
Furthermore, neither dog weight or age affected the plaque prevention effect. Finally, the iodine added to dog drinking water had no effect on dog thyroid hormone levels.

[2] = saturation of absolute alcohol with molecular iodine; type: physicochemical
Source text: One embodiment of the present invention features a carrier liquid ethanol. The ethanol is preferably devoid of water, as in absolute alcohol. As used herein, the term “absolute alcohol” refers to alcohol with no or limited water content as such term is used in a commercial context. One formulation molecular iodine having a concentration in absolute alcohol in the range of 0.1 to 1.0 Gm molecular iodine in 13 milliliters of absolute alcohol. Molecular iodine saturates absolute alcohol at a concentration of 1 Gm per 13 milliliters of absolute alcohol. A further embodiment of the present formulation features a molecular sieve particle of between 2 and 4 A which captures and adsorbs water.

[3] = system: halitosis (volatile sulfur compounds, hydrogen sulfide); assay: halitosis secondary end point: Halimeter VSC readings and qualitative odor 0-5 scale (Example 1); type: in vivo, dogs
Source text: Each dog was weighed, blood drawn for determination of thyroid level and a qualitative assessment was made for halitosis using a 0, 1, 2, 3, 4 and 5 scale with 0 indicating no discernible “doggie breath produced by hydrogen sulfide H2S” and 5 being very noxious, strong odor. Dogs were anesthetized, marginal tooth-gum line measurements were taken for proscribed teeth (required for veterinary oral health counsel certification of efficacy at reducing plaque in dogs found at www.VOHC.com) and dog teeth were cleaned to remove all plaque and tarter. All dogs were given either drug or placebo each morning for 28 days. Journal entries were kept for each dog to monitor for compliance, observations regarding dog drinking behavior and comments regarding dog breath/odor. Once each dog drank all the water i.e., 1000 mL the water bowl was filled with fresh water. The following day all the remaining water was discarded and the clinical trial sample was added to the water bowl. At the end of the study i.e., 28 days each dog was sedated, breath was evaluated and teeth were stained with disclosing solution that is proven to stain plaque red. The attending veterinarian who measured the initial marginal tooth-gum line measured all the proscribed teeth using the published technique (Scherl D S, Coffman L, et al. Validation of a New Dental Plaque Quantification Method in Dogs. J Vet Dent 24(1); 14-20, 2007). All values from all 20 dogs were recorded and whole mouth scores were calculated.
The halitosis secondary end point was more complicated since the attempt was made to use an Interscan Corporation Halimeter® that quantitatively measures volatile sulfur compounds (VSC) in the oral cavity. The Halimeter was designed for use by dentists and humans. One of the requirements to obtain reliable readings is for the conscious human subject to blow into a straw connected into the Halimeter. The problem encountered with dogs while under anesthesia is obtaining a valid reading since they are unable to “blow” into the straw. Early dog readings were erratic and turned out to be unreliable. […]

Neisseria spp. = assay: use dilution experiments (MicroChem Laboratories); type: cell-based; conditions: for reduction in microbial concentration / kill: 1 minute time point
Source text: as §1

[4] = system: plaque formation on teeth; assay: two double-blind, placebo-controlled clinical trials at a humane shelter, plaque prevention; type: in vivo, dogs
Protocol: as §2
We conducted two double-blind, placebo-controlled clinical trials using both 0.5 and 1.0 micrograms elemental iodine in water.

## II [molecular iodine]
Thyroid level (T4)
  T4 levels after treatment: remained within normal range
[1]
  microbial kill: > 3 logs/min
plaque; 0.5 or 1.0 microgram/mL in 1000 mL drinking water, once daily
  whole mouth plaque scores from Day 0 to Day 28, Treated dogs compared to Placebo dogs: statistically significant reduction
plaque; drinking water
  mean plaque score, dogs receiving 0.5 microgram/mL versus 1.0 micrograms/mL: no difference
Thyroid hormone levels
  effect on dog thyroid hormone levels: no effect
[2]
  concentration at which molecular iodine saturates absolute alcohol: 1 Gm per 13 milliliters of absolute alcohol
[3]; 0-5 scale, 3 dogs of the iodine group, initial levels 4-5, not statistically significant
  Halimeter VSC levels at the conclusion of the clinical trial: 0-1
[3]; 0-5 scale, 5 iodine-treated dogs, initial smell 3-5
  qualitative odor, final: 0-1
[3]; of 10 iodine-treated dogs, 28 days
  number of iodine-treated dogs with reduced oral smell or doggie breath or VSC/H2S: 8
Neisseria spp.; 0.05 micrograms/mL
  antimicrobial efficacy: no antimicrobial efficacy
Neisseria spp.; 0.1 micrograms/mL
  antimicrobial efficacy: no antimicrobial efficacy
Neisseria spp.; 0.5 microgram/mL
  reduction in microbial concentration: 100 fold
Neisseria spp.; 1.0 microgram/mL
  reduction in microbial concentration: 1000 fold
Neisseria spp.; 2.0 microgram/mL
  kill: > 4 logs
Neisseria spp.; 5.0 microgram/mL
  kill: > 4 logs
Neisseria spp.; concentrations below 0.5 micrograms/mL, independent use dilution experiments
  killing oral bacteria: not effective
[4]; both 0.5 and 1.0 micrograms/mL water
  plaque prevention: proven effective
[4]; dog drinking water, all dogs regardless of size or age
  prevention of plaque formation, 0.5 versus 1.0 micrograms/mL: statistically significantly identical
